Patent US8809352B2, “Sulfonamides as inhibitors of Bcl-2 family proteins for the treatments of cancer” (Novartis AG, priority 2009, dated 2014)
pIC50: −log10 of the molar value.

target: BCL2 (Homo sapiens, UniProt P10415); test: Biacore SPR solution inhibition assay of BCL-2 binding to peptide derivatized sensor surfaces; details: SPR competition; 56 nM BCL2 pre-equilibrated with compound one hour; biotinylated BAK, BAD and NOXA peptide surfaces; 25° C.
Description: The present method includes utility of a Surface plasmon resonance (SPR)-based biosensor (Biacore™ GE Healthcare, Uppsala, Sweden) to characterize BCL-2 inhibitors.
Biacore™ utilizes the phenomenon of surface plasmon resonance (SPR) to detect and measure binding interactions. In a typical Biacore experiment, one of the interacting molecules (ligand) is immobilized on a flexible dextran matrix while the interacting partner (analyte) is allowed to flow across that surface. A binding interaction results in an increase in mass on the sensor surface and a corresponding direct change in the refractive index of the medium in the vicinity of the sensor surface. Changes in refractive index or signal are recorded in resonance units (R.U.) Signal changes due to association and dissociation of complexes are monitored in a non-invasive manner, continuously and in real-time, the results of which are reported in the form of a sensorgram. The SPR assay is configured to examine solution inhibition of BCL-2 binding to peptide derivatized sensor surfaces to generate […] values as a measure of inhibitor potency.
Biacore™ A100 (GE Healthcare, Uppsala, Sweden) was used to conduct all experiments reported herein. Sensor surface preparation and all interaction analyses experiments were performed at 25° C. Reagents were purchased from GE Healthcare. Running buffer containing 10 mM Hepes, pH7.4, 150 mM sodium chloride, 1.25 mM Dithiothreitol, 3% Dimethyl sulfoxide and 0.05% polysorbate 20 were utilized throughout all analyses.
Biotinylated BAK, BAD and NOXA peptides were diluted to 10 nM in running buffer and captured onto a sensor surface pre-derivatized with streptavidin (sensor chip SA) to peptide surface densities in the range 50-100 R.U. Peptide captured surfaces were blocked with 500 μM PEO2-Biotin.
Interaction analyses were performed by first equilibrating each sample within a 6 point three fold compound dilution series in the range 16 μM to 0.004 nM with 56 nM BCL2 for one hour during instrument start-up procedures. Protein compound mixtures were then injected over each peptide surface in parallel for 60 seconds at a flow-rate of 30 μL/min. 56 nM BCL2 control samples were also prepared and run at regular intervals during the assay. Surface regeneration was performed at the end of each analysis cycle by two 30 second injections of 10 mM Glycine, pH 2.5, 1M Sodium Chloride, 0.05% polysorbate 20. Samples and control compound samples were run in duplicate and controls are also run at regular intervals during the assay to monitor surface and assay performance.
Data analyses are carried out using Biacore™ A100 evaluation software v1.1 to validate assay quality. Binding level report points were used relative to BCL2 control samples to calculate % inhibition values for each compound protein mixture.

BCL2, sequence (P10415 whole entry): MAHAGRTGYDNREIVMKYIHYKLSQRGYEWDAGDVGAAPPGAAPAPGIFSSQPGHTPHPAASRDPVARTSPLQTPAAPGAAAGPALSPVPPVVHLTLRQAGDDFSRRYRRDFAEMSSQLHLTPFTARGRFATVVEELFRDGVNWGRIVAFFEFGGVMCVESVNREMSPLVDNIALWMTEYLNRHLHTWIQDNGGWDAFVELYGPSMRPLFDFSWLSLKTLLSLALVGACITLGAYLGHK

| Structure (SMILES) | pIC50 |
| --- | --- |
| C[C@H]1CC(N2CCc3c(ncnc3NS(=O)(=O)c3ccc(N[C@H](CCN(C)C)CSc4ccccc4)c([N+](=O)[O-])c3)C2)CCN1Cc1ccccc1-c1ccc(Cl)cc1 (mixture of isomers) [Example 3] | 7.21 |
| C[C@H]1CC(N2CCc3c(ncnc3NS(=O)(=O)c3ccc(N[C@H](CCN(C)C)CSc4ccccc4)c(S(=O)(=O)C(F)(F)F)c3)C2)CCN1Cc1ccccc1-c1ccc(Cl)cc1 (mixture of isomers) [Example 4, N-(7-((2S)-1-((4′-chlorobiphenyl-2-yl)methyl)-2-methylpiperidin-4-yl)-5,6,7,8-tetrahydropyrido[3,4-d]pyrimidin-4-yl)-4-((R)-4-(dimethylamino)-1-(phenylthio)butan-2-ylamino)-3-(trifluoromethylsulfonyl)benzenesulfonamide] | 7.66 |
| CN(C)CC[C@H](CSc1ccccc1)Nc1ccc(S(=O)(=O)Nc2ncnc3c2CCN(C2CCN(Cc4ccccc4-c4ccc(Cl)cc4)CC2)C3)cc1[N+](=O)[O-] [Example 1, N-{7-[1-(4′-Chloro-biphenyl-2-ylmethyl)-piperidin-4-yl]-5,6,7,8-tetrahydro-pyrido[3,4-d]pyrimidin-4-yl}-4-((R)-3-dimethylamino-1-phenylsulfanylmethyl-propylamino)-3-nitro-benzenesulfonamide] | 7.00 |
| CN(C)CC[C@H](CSc1ccccc1)Nc1ccc(S(=O)(=O)Nc2ncnc3c2CCN(C2CCN(CC4=C(c5ccc(Cl)cc5)CCC(C)(C)C4)CC2)C3)cc1[N+](=O)[O-] [Example 2] | 7.51 |
| CN(C)CC[C@H](CSc1ccccc1)Nc1ccc(S(=O)(=O)Nc2ncnc3c2CCN(C2CCN(Cc4ccccc4-c4ccc(F)cc4)CC2)C3)cc1S(=O)(=O)C(F)(F)F [Example 5, (R)-4-(4-(dimethylamino)-1-(phenylthio)butan-2-ylamino)-N-(7-(1-((4′-fluorobiphenyl-2-yl)methyl)piperidin-4-yl)-5,6,7,8-tetrahydropyrido[3,4-d]pyrimidin-4-yl)-3-(trifluoromethylsulfonyl)benzenesulfonamide] | 7.60 |
| CN(C)CC[C@H](CSc1ccccc1)Nc1ccc(S(=O)(=O)Nc2ncnc3c2CCN(C2CCN(Cc4ccccc4-c4ccc(Br)cc4)CC2)C3)cc1S(=O)(=O)C(F)(F)F [Example 6, (R)-N-(7-(1-((4′-bromobiphenyl-2-yl)methyl)piperidin-4-yl)-5,6,7,8-tetrahydropyrido[3,4-d]pyrimidin-4-yl)-4-(4-(dimethylamino)-1-(phenylthio)butan-2-ylamino)-3-(trifluoromethylsulfonyl)benzenesulfonamide] | 7.72 |
| CN(C)CC[C@H](CSc1ccccc1)Nc1ccc(S(=O)(=O)Nc2ncnc3c2CCN(C2CCN(Cc4ccccc4Br)CC2)C3)cc1S(=O)(=O)C(F)(F)F [Example 7, (R)-N-(7-(1-(2-bromobenzyl)piperidin-4-yl)-5,6,7,8-tetrahydropyrido[3,4-d]pyrimidin-4-yl)-4-(4-(dimethylamino)-1-(phenylthio)butan-2-ylamino)-3-(trifluoromethylsulfonyl)benzenesulfonamide] | 6.30 |
| CC1(C)CCC(c2ccc(Cl)cc2)=C(CN2CCC(N3CCc4c(ncnc4NS(=O)(=O)c4ccc(N[C@H](CCN5CCOCC5)CSc5ccccc5)c(S(=O)(=O)C(F)(F)F)c4)C3)CC2)C1 [Example 8] | 7.12 |

Continued, values first:

| pIC50 | Structure (SMILES) |
| --- | --- |
| 7.20 | COC1(Cc2ccccc2-c2ccc(Cl)cc2)CCC(N2CCc3c(ncnc3NS(=O)(=O)c3ccc(N[C@H](CCN(C)C)CSc4ccccc4)c(S(=O)(=O)C(F)(F)F)c3)C2)CC1 (mixture of isomers) [Example 60, (R)-N-(7-(4-((4′-chlorobiphenyl-2-yl)methyl)-4-methoxycyclohexyl)-5,6,7,8-tetrahydropyrido[3,4-d]pyrimidin-4-yl)-4-(4-(dimethylamino)-1-(phenylthio)butan-2-ylamino)-3-(trifluoromethylsulfonyl)benzenesulfonamide] |
| 7.15 | CN(C)CC[C@H](CSc1ccccc1)Nc1ccc(S(=O)(=O)Nc2ncnc3c2CCN(C2CCC(O)(Cc4ccccc4-c4ccc(Cl)cc4)CC2)C3)cc1S(=O)(=O)C(F)(F)F (mixture of isomers) [Example 64, (R)-N-(7-(4-((4′-chlorobiphenyl-2-yl)methyl)-4-hydroxycyclohexyl)-5,6,7,8-tetrahydropyrido[3,4-d]pyrimidin-4-yl)-4-(4-(dimethylamino)-1-(phenylthio)butan-2-ylamino)-3-(trifluoromethylsulfonyl)benzenesulfonamide] |
| 6.45 | CC1Cc2c(ncnc2NS(=O)(=O)c2ccc(N[C@H](CCN(C)C)CSc3ccccc3)c(S(=O)(=O)C(F)(F)F)c2)CN1C1CCN(Cc2ccccc2-c2ccc(Cl)cc2)CC1 (stereo in doubt) [Example 48, N—[(S)-7-[1-(4′-Chloro-biphenyl-2-ylmethyl)-piperidin-4-yl]-6-methyl-5,6,7,8-tetrahydro-pyrido[3,4-d]pyrimidin-4-yl]-4-((R)-3-dimethylamino-1-phenylsulfanylmethyl-propylamino)-3 trifluoromethanesulfonyl-benzene sulfonamide] |
| 7.48 | CC1Cc2c(ncnc2NS(=O)(=O)c2ccc(N[C@H](CCN(C)C)CSc3ccccc3)c(S(=O)(=O)C(F)(F)F)c2)CN1C1CCN(Cc2ccccc2-c2ccc(Cl)cc2)CC1 (stereo in doubt) [Example 49, N-{(R)-7-[1-(4′-Chloro-biphenyl-2-ylmethyl)-piperidin-4-yl]-6-methyl-5,6,7,8-tetrahydro-pyrido[3,4-d]pyrimidin-4-yl}-4-((R)-3-dimethylamino-1-phenylsulfanylmethyl-propylamino)-3-trifluoromethanesulfonyl-benzenesulfonamide] |
| 6.84 | O=S(=O)(Nc1ncnc2c1CCN(C1CCN(Cc3ccccc3-c3ccc(Cl)cc3)CC1)C2)c1ccc(N[C@H](CCN2CCOCC2)CSc2ccccc2)c(S(=O)(=O)C(F)(F)F)c1 [Example 9, (R)-N-(7-(1((4′-chlorobiphenyl-2-yl)methyl)piperidin-4-yl)-5,6,7,8-tetrahydropyrido[3,4-d]pyrimidin-4-yl)-4-(4-morpholino-1-(phenylthio)butan-2-ylamino)-3-(trifluoromethylsulfonyl)benzenesulfonamide] |
| 7.51 | CN(C)CC[C@H](CSc1ccccc1)Nc1ccc(S(=O)(=O)Nc2ncnc3c2CCN(C2CCN(CC4=C(c5ccc(Cl)cc5)CCC(C)(C)C4)CC2)C3)cc1S(=O)(=O)C(F)(F)F [Example 10, (R)-N-(7-(1-((2-(4-chlorophenyl)-5,5-dimethylcyclohex-1-enyl)methyl)piperidin-4-yl)-5,6,7,8-tetrahydropyrido[3,4-d]pyrimidin-4-yl)-4-(4-(dimethylamino)-1-(phenylthio)butan-2-ylamino)-3-(trifluoromethylsulfonyl)benzenesulfonamide] |
| 7.70 | CN(C)CC[C@H](CSc1ccccc1)Nc1ccc(S(=O)(=O)Nc2ncnc3c2CCN(C2CCN(Cc4ccccc4-c4ccc(Cl)cc4)CC2)C3)cc1S(=O)(=O)C(F)(F)F [Example 11, (R)-N-(7-(1((4′-chlorobiphenyl-2-yl)methyl)piperidin-4-yl)-5,6,7,8-tetrahydropyrido[3,4-d]pyrimidin-4-yl)-4-(4-(dimethylamino)-1-(phenylthio)butan-2-ylamino)-3-(trifluoromethylsulfonyl)benzenesulfonamide] |
